The record followed here is paper PMC10485906, “Development of a Dihydroquinoline–Pyrazoline GluN2C/2D-Selective Negative Allosteric Modulator of the N-Methyl-D-aspartate Receptor” (ACS Chemical Neuroscience, 2023).

SMILES strings stand for the structures.

The first data set deals with GluN1/GluN2C (Rattus norvegicus, UniProt P35439+Q00961). In words: Two-electrode voltage-clamp recordings, Xenopus laevis oocytes, GluN1/GluN2C. Further details: GluN2B (NM_012574.1), GluN2C (NM_012575.3), and GluN2D (NM_022797.2) were provided by; expressed in transfected cells; host or cells: Xenopus laevis oocytes (cRNA injection). The settings on record: 30 μM test compound; 100 μM glutamate, 30 μM glycine; mean ± SEM; read-out: I 30 μM / I control GluN2C. It is filed as cell-based. On the procedure: All target compounds were evaluated for NMDAR antagonism using two-electrode voltage-clamp recordings from Xenopus laevis oocytes coexpressing recombinant GluN1 and GluN2A-D subunits (Table 1).[32],[42],[33] All analogues were assessed as either a racemic (2b, 2e–2r) or diastereomeric (2d) mixture to simplify purification and streamline in vitro analysis. […] Moreover, as illustrated by the significant loss of NMDAR activity observed with nitrile 2e, the DQP allosteric site necessitated an H-bond donor/acceptor relationship at the carboxylate position. […] The loss of NMDAR activity observed with the trifluoro analogue 2j (Table S1) reinforced the necessity for an H-bond donor/acceptor relationship to maintain allosteric binding and established that fluorine substitution alone is ineffective. […] A single methyl substitution of the amide in compound 2q improved selectivity against GluN2A and had similar potency as 2a, whereas dual methyl substitution reduced potency (2r). We expect that this is likely due to the ability of the […] of the amide to accept hydrogen bonds while the amide can readily donate a proton.
Sequence of GluN1/GluN2C (Q00961 20-1237, other chains not shown): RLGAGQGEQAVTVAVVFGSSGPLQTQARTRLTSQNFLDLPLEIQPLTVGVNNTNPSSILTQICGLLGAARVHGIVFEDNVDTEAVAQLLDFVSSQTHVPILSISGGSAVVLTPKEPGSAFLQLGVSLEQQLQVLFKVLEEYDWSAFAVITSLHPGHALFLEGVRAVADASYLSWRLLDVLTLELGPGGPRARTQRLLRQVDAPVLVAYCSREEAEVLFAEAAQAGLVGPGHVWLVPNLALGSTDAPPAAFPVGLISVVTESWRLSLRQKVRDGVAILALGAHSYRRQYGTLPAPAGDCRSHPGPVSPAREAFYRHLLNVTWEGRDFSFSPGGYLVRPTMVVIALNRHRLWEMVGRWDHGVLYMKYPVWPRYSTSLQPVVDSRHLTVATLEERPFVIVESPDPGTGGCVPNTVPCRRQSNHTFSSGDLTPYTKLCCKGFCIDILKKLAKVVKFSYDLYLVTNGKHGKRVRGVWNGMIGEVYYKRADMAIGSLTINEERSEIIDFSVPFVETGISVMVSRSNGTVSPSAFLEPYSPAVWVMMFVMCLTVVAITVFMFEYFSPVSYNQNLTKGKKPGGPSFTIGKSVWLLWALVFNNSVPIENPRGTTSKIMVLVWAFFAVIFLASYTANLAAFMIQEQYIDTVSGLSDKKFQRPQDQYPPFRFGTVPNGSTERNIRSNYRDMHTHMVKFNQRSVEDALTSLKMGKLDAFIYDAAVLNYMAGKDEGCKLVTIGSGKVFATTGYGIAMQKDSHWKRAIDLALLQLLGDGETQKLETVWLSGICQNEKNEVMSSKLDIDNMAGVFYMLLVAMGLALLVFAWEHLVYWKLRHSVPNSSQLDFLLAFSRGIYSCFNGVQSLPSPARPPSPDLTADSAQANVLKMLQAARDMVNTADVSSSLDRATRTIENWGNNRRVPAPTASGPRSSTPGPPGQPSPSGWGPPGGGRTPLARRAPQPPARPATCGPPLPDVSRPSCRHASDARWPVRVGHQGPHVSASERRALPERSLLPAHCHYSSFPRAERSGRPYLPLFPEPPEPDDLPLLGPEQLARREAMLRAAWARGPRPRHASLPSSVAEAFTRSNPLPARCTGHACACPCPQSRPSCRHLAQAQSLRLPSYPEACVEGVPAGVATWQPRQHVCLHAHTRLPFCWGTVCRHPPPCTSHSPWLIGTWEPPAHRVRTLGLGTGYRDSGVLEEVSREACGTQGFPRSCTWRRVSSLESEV
Unfertilized Xenopus laevis oocytes were obtained from Ecocyte (Austin, TX), or ovaries were purchased from Xenopus 1 (Dexter, MI) and oocytes prepared as previously described.[42],[47] Two-electrode voltage-clamp recordings were performed on oocytes expressing recombinant rat GluN1/GluN2A, GluN1/GluN2B, GluN1/GluN2C, or GluN1/GluN2D. cDNAs for rat GluN1-1a (referred to as GluN1; NCBI Reference Sequence NM_017010.2), GluN2A (NM_012573.4), GluN2B (NM_012574.1), GluN2C (NM_012575.3), and GluN2D (NM_022797.2) were provided by Dr. S. Heinemann from the Salk Institute, Dr. S. Nakanishi from Kyoto University, and Dr. P. Seeburg from the University of Heidelberg. Oocyte isolation, cRNA synthesis, and cRNA injections were performed as previously described.[32],[33],[47] Briefly, Xenopus laevis oocytes were injected with 5–10 ng of cRNA in RNase-free water with the GluN1:GluN2 ratio ranging from 1:1 to 1:5. Oocytes were incubated at 15–19 °C in Barth’s solution consisting of (in mM) 88 NaCl, 1 KCl, 2.4 NaHCO3, 10 HEPES, 0.82 MgSO4, 0.33 Ca(NO3)2, and 0.41 CaCl2 supplemented with 100 μg/mL gentamycin, 40 μg/mL streptomycin, and 50 μg/mL penicillin. Recordings were performed 2–4 days after injection with extracellular recording solution containing (in mM) 90 NaCl, 1 KCl, 10 HEPES, 0.5 BaCl2, and 0.01 EDTA at pH 7.4 adjusted with NaOH. To prevent a gradual increase in current response over the course of the experiment, some oocytes expressing GluN1/GluN2A were injected with 20–50 nL of 2–50 mM K-BAPTA. Concentration–response curves for test compounds were generated by applying a maximally effective concentration of glutamate (100 μM) and glycine (30 μM), followed by glutamate and glycine with variable concentrations of test compounds up to 30 μM. The test compounds were prepared as 20 mM stock solutions in DMSO and diluted to the final concentration in recording solution. The DMSO content was 0.05–0.5% (v/v). […] Methods for off-target analysis are given in the Supporting Information.
Confidence intervals were determined for the log(IC50). The time course of relaxation during inhibitor application or deactivation following rapid removal of NMDA or glutamate was fitted by the equation [drawing 5] 2
For the compound `O=C(CC(F)(F)C(=O)N1N=C(c2c(-c3ccc(Cl)cc3)c3ccccc3[nH]c2=O)CC1c1ccc(Cl)cc1)OCC1CC1` (stereo not shown) [2n], the remaining activity at 30 µM stood at 93 ± 4.2%.
On the same count and under the same terms, the same measure for `CC(C)OC(=O)CC(F)(F)C(=O)N1N=C(c2c(-c3ccc(Cl)cc3)c3ccccc3[nH]c2=O)CC1c1ccc(Cl)cc1` (stereo not shown) [2m]: 90 ± 4.3%.
Turning to `O=C(CC(F)(F)C(=O)N1N=C(c2c(-c3ccc(Cl)cc3)c3ccccc3[nH]c2=O)CC1c1ccc(Cl)cc1)OCc1ccccc1` (stereo not shown) [2p], the remaining activity at 30 µM amounted to 98 ± 0.95%.
Consider `CCOC(=O)CC(F)(F)C(=O)N1N=C(c2c(-c3ccc(Cl)cc3)c3ccccc3[nH]c2=O)CC1c1ccc(Cl)cc1` (stereo not shown) [2l], for which the remaining activity at 30 µM worked out at 93 ± 0.7%.

Staying with this data set, now noted: 100 μM glutamate, 30 μM glycine; read-out: IC50 GluN2C [95% CI].
Consider `CNC(=O)CC(F)(F)C(=O)N1N=C(c2c(-c3ccc(Cl)cc3)c3ccccc3[nH]c2=O)CC1c1ccc(Cl)cc1` (stereo not shown) [2q], for which the IC50 was determined as 670 nM.
Still for that read-out and setting: to `O=C(O)CC(F)(F)C(=O)N1N=C(c2c(-c3ccc(Cl)cc3)c3ccccc3[nH]c2=O)C[C@H]1c1ccc(Cl)cc1` [(S)-(−)-2i] belongs 61 nM; to `O=C(O)CC(F)(F)C(=O)N1N=C(c2c(-c3ccc(Cl)cc3)c3ccccc3[nH]c2=O)CC1c1ccc(Cl)cc1` (stereo not shown) [2i], 350 nM.
On the same count and under the same terms, the same measure for `NC(=O)CC(F)(F)C(=O)N1N=C(c2c(-c3ccc(Cl)cc3)c3ccccc3[nH]c2=O)CC1c1ccc(Cl)cc1` (stereo not shown) [2k]: 380 nM.
Same read-out and setting: to `CN(C)C(=O)CC(F)(F)C(=O)N1N=C(c2c(-c3ccc(Cl)cc3)c3ccccc3[nH]c2=O)CC1c1ccc(Cl)cc1` (stereo not shown) [2r] belongs 4100 nM.

System in another data set: not listed separately
As to the kind of experiment: Liver microsome stability, mouse. The data set is classed as in vitro ADME. The settings on record: CD-1, mouse, liver microsomes, incubation up to 30 min; 3 μM; read-out: liver microsome stability T1/2, mouse. On the procedure:
Human liver microsomes (HLMs, 20 mg/mL) and CD-1 mouse liver microsomes (MLMs, 20 mg/mL) were purchased from Xenotech. NADPH was purchased from Sigma-Aldrich and prepared in 10 mM stock solutions of distilled H2O (Invitrogen UltraPure). Verapamil and diphenhydramine were both purchased from Sigma-Aldrich and served as positive controls for HLM and MLM stability, respectively. Test compounds and positive controls were initially dissolved in DMSO to make 10 mM stock solutions. Sample solutions were then further diluted in 70% MeOH/H2O or 100% MeCN to 500 μM. Next, the reactions were prepared by mixing human or mouse liver microsomes (55 μL) with potassium phosphate buffer (100 mM, […]) in 1.5 mL Eppendorf tubes. The test compounds (6.6 μL of 500 μM solution) were subsequently added to the suspensions, and the reaction mixtures were incubated at 37 °C for 5 min. Afterward, the liver microsome reactions were initiated with 110 μL of 10 mM NADPH and further incubated at 37 °C for the designated time course of the study. This procedure provided experiments with a final volume of 1100 μL (<0.6% organic solvent content), a concentration for HLMs and MLMs of 1 mg/mL, and a final test compound concentration of 3 μM. Aliquots (100 μL) were removed from each reaction mixture in duplicate at 0, 5, 10, 15, and 30 min time intervals and quenched with 100 μL of cold internal standard solution (ISTD, 2 μM 7-ethoxy-d5-coumarin in MeOH or MeCN). Quenched aliquots were then centrifuged at 12 500 g for 5–10 min, and the resulting supernatants were withdrawn and placed in LC-MS vials to be analyzed by LC-MS/MS (Agilent G6460C QQQ MS coupled with an Infinity II 1260 HPLC). Each test compound was run in tandem with positive and negative control experiments for quality assurance. Positive control reactions were conducted at a final volume of 550 μL for a single run at each time point. Lastly, the negative control experiment was conducted with test compounds and liver microsomes in the absence of NADPH (150 μL) and analyzed at the 30 min time point.
For both LM and plasma assays, each data point was analyzed in triplicate using between blank washes to avoid carry over and to equilibrate the column for the subsequent runs. Averages of these triplicates for individual compounds at each time point were then normalized to the data at 0 min, representing 100% of the test compound remaining or 0% metabolism. Half-lives (t1/2) were calculated by plotting ln of % test compound remaining versus time and performing linear regression to determine slope. Slope = −k and t1/2 = 0.693/k for first-order kinetics (see Figures S5 and S6 for a representative example).
On to `CNC(=O)CC(F)(F)C(=O)N1N=C(c2c(-c3ccc(Cl)cc3)c3ccccc3[nH]c2=O)CC1c1ccc(Cl)cc1` (stereo not shown) [2q], for which the half-life at 3 μM was no more than 7 min.
With `O=C(CC(F)(F)C(=O)N1N=C(c2c(-c3ccc(Cl)cc3)c3ccccc3[nH]c2=O)CC1c1ccc(Cl)cc1)OCC1CC1` (stereo not shown) [2n], the half-life at 3 μM was determined as 1.8 min.
Same read-out and setting: to `CC(C)OC(=O)CC(F)(F)C(=O)N1N=C(c2c(-c3ccc(Cl)cc3)c3ccccc3[nH]c2=O)CC1c1ccc(Cl)cc1` (stereo not shown) [2m] belongs 2.9 min; to `O=C(O)CC(F)(F)C(=O)N1N=C(c2c(-c3ccc(Cl)cc3)c3ccccc3[nH]c2=O)CC1c1ccc(Cl)cc1` (stereo not shown) [2i], greater than 30 min.
The same measure, in the same setting: the same measure for `NC(=O)CC(F)(F)C(=O)N1N=C(c2c(-c3ccc(Cl)cc3)c3ccccc3[nH]c2=O)CC1c1ccc(Cl)cc1` (stereo not shown) [2k]: greater than 30 min; for `CC(C)(C)COC(=O)CC(F)(F)C(=O)N1N=C(c2c(-c3ccc(Cl)cc3)c3ccccc3[nH]c2=O)CC1c1ccc(Cl)cc1` (stereo not shown) [2o]: 4 min.
On the same count and under the same terms, the same measure for `O=C(O)CCC(=O)N1N=C(c2c(-c3ccc(Cl)cc3)c3ccccc3[nH]c2=O)CC1c1ccc(Cl)cc1` (stereo not shown) [2a]: greater than 30 min; for `O=C(CC(F)(F)C(=O)N1N=C(c2c(-c3ccc(Cl)cc3)c3ccccc3[nH]c2=O)CC1c1ccc(Cl)cc1)OCc1ccccc1` (stereo not shown) [2p]: 7.2 min.
Turning to `CCOC(=O)CC(F)(F)C(=O)N1N=C(c2c(-c3ccc(Cl)cc3)c3ccccc3[nH]c2=O)CC1c1ccc(Cl)cc1` (stereo not shown) [2l], the half-life at 3 μM was 2.6 min.

The data set is the same for the next values; noted with them: CD-1, mouse, liver microsomes; over the assay time course (30 min); read-out: % remaining, mouse LMs.
`O=C(O)CC(F)(F)C(=O)N1N=C(c2c(-c3ccc(Cl)cc3)c3ccccc3[nH]c2=O)CC1c1ccc(Cl)cc1` (stereo not shown) [2i]: the share remaining at 0.5 h, 3 µM is greater than 95%.
On to `NC(=O)CC(F)(F)C(=O)N1N=C(c2c(-c3ccc(Cl)cc3)c3ccccc3[nH]c2=O)CC1c1ccc(Cl)cc1` (stereo not shown) [2k], for which the amount remaining at 0.5 h, 3 µM was greater than 90%.
Still for that read-out and setting: to `O=C(O)CCC(=O)N1N=C(c2c(-c3ccc(Cl)cc3)c3ccccc3[nH]c2=O)CC1c1ccc(Cl)cc1` (stereo not shown) [2a] belongs greater than 95%.

Still in this data set, the particulars now being: CD-1, mouse, mouse liver microsomes.
Compound `CNC(=O)CC(F)(F)C(=O)N1N=C(c2c(-c3ccc(Cl)cc3)c3ccccc3[nH]c2=O)CC1c1ccc(Cl)cc1` (stereo not shown) [2q] displayed a microsomal CLint at 3 μM of 178 µL/min/mg.
In turn, `O=C(CC(F)(F)C(=O)N1N=C(c2c(-c3ccc(Cl)cc3)c3ccccc3[nH]c2=O)CC1c1ccc(Cl)cc1)OCC1CC1` (stereo not shown) [2n] gave a microsomal CLint at 3 μM of 385 µL/min/mg.
Still for that read-out and setting: the same measure for `CC(C)OC(=O)CC(F)(F)C(=O)N1N=C(c2c(-c3ccc(Cl)cc3)c3ccccc3[nH]c2=O)CC1c1ccc(Cl)cc1` (stereo not shown) [2m]: 239 µL/min/mg.
Still for that read-out and setting: to `O=C(O)CC(F)(F)C(=O)N1N=C(c2c(-c3ccc(Cl)cc3)c3ccccc3[nH]c2=O)CC1c1ccc(Cl)cc1` (stereo not shown) [2i] belongs less than 23 µL/min/mg; to `NC(=O)CC(F)(F)C(=O)N1N=C(c2c(-c3ccc(Cl)cc3)c3ccccc3[nH]c2=O)CC1c1ccc(Cl)cc1` (stereo not shown) [2k], less than 23 µL/min/mg; to `CC(C)(C)COC(=O)CC(F)(F)C(=O)N1N=C(c2c(-c3ccc(Cl)cc3)c3ccccc3[nH]c2=O)CC1c1ccc(Cl)cc1` (stereo not shown) [2o], 173 µL/min/mg.
On the same count and under the same terms, the same measure for `O=C(O)CCC(=O)N1N=C(c2c(-c3ccc(Cl)cc3)c3ccccc3[nH]c2=O)CC1c1ccc(Cl)cc1` (stereo not shown) [2a]: less than 23 µL/min/mg; for `O=C(CC(F)(F)C(=O)N1N=C(c2c(-c3ccc(Cl)cc3)c3ccccc3[nH]c2=O)CC1c1ccc(Cl)cc1)OCc1ccccc1` (stereo not shown) [2p]: 96 µL/min/mg.
For the compound `CN(C)C(=O)CC(F)(F)C(=O)N1N=C(c2c(-c3ccc(Cl)cc3)c3ccccc3[nH]c2=O)CC1c1ccc(Cl)cc1` (stereo not shown) [2r], the microsomal CLint at 3 μM was 231 µL/min/mg.
Still for that read-out and setting: to `CCOC(=O)CC(F)(F)C(=O)N1N=C(c2c(-c3ccc(Cl)cc3)c3ccccc3[nH]c2=O)CC1c1ccc(Cl)cc1` (stereo not shown) [2l] belongs 267 µL/min/mg.
